Assay results: the NIST ThermoML archive (doi:10.1016/j.jct.2009.07.002)

Assay: isobaric coefficient of expansion
Conditions: Liquid, DSC with Pressure Shift

CCCO [propan-1-ol]
isobaric coefficient of expansion
Conditions	278.15 K	288.15 K	298.15 K	308.15 K	318.15 K	328.15 K	338.15 K	348.15 K
5000 kPa	0.000927 1/K	0.000947 1/K	0.000967 1/K	0.001 1/K	0.00104 1/K	0.00107 1/K	0.00111 1/K	0.00116 1/K
10000 kPa	0.000901 1/K	0.000923 1/K	0.000943 1/K	0.000975 1/K	0.001 1/K	0.00104 1/K	0.00108 1/K	0.00112 1/K
15000 kPa	0.000883 1/K	0.000902 1/K	0.00092 1/K	0.000948 1/K	0.000976 1/K	0.00101 1/K	0.00104 1/K	0.00108 1/K
20000 kPa	0.000868 1/K	0.000884 1/K	0.000899 1/K	0.000925 1/K	0.000947 1/K	0.000975 1/K	0.00101 1/K	0.00105 1/K
25000 kPa	0.00085 1/K	0.000867 1/K	0.000877 1/K	0.0009 1/K	0.000922 1/K	0.00095 1/K	0.000977 1/K	0.00101 1/K
30000 kPa	0.000834 1/K	0.000848 1/K	0.000858 1/K	0.000882 1/K	0.000899 1/K	0.000923 1/K	0.000951 1/K	0.000984 1/K
35000 kPa	0.000818 1/K	0.00083 1/K	0.000843 1/K	0.000859 1/K	0.00088 1/K	0.000901 1/K	0.000926 1/K	0.000958 1/K
40000 kPa	0.000803 1/K	0.000816 1/K	0.000822 1/K	0.000844 1/K	0.000854 1/K	0.000878 1/K	0.000899 1/K	0.000927 1/K
45000 kPa	0.00079 1/K	0.000801 1/K	0.000811 1/K	0.000824 1/K	0.000839 1/K	0.000858 1/K	0.000881 1/K	0.000906 1/K
50000 kPa	0.000777 1/K	0.000786 1/K	0.000795 1/K	0.000809 1/K	0.000822 1/K	0.000838 1/K	0.000862 1/K	0.000885 1/K
55000 kPa	0.000767 1/K	0.000775 1/K	0.000781 1/K	0.000794 1/K	0.000806 1/K	0.000821 1/K	0.000837 1/K	0.000861 1/K
